Values belong to the compound of their own block, whether it stands above or below them.
How the values were obtained:
[1] = target: T1, purified human AR (Homo sapiens, UniProt P10275); assay: surface plasmon resonance, binding to immobilized AR; details: for Kd: dissociation constant (Kd) for binding to AR, SPR, AR immobilized
T1 sequence (P10275 1-920): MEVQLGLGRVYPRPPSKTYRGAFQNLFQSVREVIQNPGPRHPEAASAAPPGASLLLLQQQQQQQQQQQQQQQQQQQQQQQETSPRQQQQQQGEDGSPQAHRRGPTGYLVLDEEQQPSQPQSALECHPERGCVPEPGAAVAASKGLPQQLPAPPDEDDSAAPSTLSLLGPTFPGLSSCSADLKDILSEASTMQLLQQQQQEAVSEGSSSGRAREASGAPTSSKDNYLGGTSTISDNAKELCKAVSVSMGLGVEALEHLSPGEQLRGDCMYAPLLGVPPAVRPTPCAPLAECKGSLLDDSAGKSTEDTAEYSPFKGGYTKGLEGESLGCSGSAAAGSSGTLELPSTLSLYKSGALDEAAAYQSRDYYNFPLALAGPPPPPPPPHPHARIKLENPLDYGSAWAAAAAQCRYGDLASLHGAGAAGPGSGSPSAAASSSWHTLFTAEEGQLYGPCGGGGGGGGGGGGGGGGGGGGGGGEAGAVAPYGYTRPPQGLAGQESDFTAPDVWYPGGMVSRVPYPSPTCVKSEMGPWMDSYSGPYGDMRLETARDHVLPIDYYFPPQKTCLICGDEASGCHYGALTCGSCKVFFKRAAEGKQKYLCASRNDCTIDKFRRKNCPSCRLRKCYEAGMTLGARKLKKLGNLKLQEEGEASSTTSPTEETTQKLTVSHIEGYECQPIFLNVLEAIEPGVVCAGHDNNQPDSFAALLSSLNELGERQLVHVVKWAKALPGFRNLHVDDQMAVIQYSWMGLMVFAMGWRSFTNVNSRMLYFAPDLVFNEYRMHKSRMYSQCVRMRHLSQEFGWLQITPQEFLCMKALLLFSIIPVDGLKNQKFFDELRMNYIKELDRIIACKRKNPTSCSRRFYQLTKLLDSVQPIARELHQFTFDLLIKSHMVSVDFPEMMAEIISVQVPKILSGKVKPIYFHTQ

[2] = system: ELK1-dependent promoter activation by AR; assay: primary screening assay; assay type: cell-based; details: for IC50 for inhibition of ELK1-dependent promoter activation by AR: primary screening assay, compound dose range of 1-10μM; for IC50: Homo sapiens, HeLa, read-out: IC50 for inhibition of ELK1-dependent promoter activation by AR
[3] = easily oxidized; ref [33], [34]; cited from earlier work
[4] = system: ARE-dependent promoter activation by AR; assay: counter screening assay; assay type: cell-based; details: words
[5] = system: PDX-PR011 tumor xenograft; assay: PDX-PR011 patient-derived tumor xenograft in male SCID mice; details: for tumor growth, PDX-PR011 xenograft: treatment from Day 1 after implantation
[6] = system: 22Rv1 cells; assay: MTT growth assay, 22Rv1; details: androgen-independent cells; up to 20 uM
[7] = system: LNCaP cells; assay: MTT growth assay, LNCaP; details: androgen-dependent cells; up to 20 uM
[8] = system: AR-V7; assay: hormone-independent promoter activation by AR-V7; assay type: cell-based; details: relatively higher concentrations required
[9] = system: VCaP cells; assay: MTT growth assay, VCaP; details: androgen-dependent cells
[10] = in vivo; details: SCID, mouse
[11] = target: ELK1 (Homo sapiens, UniProt P19419); assay: surface plasmon resonance, binding to immobilized ELK1; details: SPR
[12] = system: DU145 (prostate cancer cells); assay: growth of AR-negative cells, DU145; assay type: cell-based
[13] = system: 22Rv1 CRPC cells; assay: colony formation assay, 22Rv1
[14] = system: AR recruitment to chromatin in LNCaP cells; assay: chromatin immunoprecipitation; assay type: cell-based; details: R1881 10nM + KCI807 20uM, 2h
[15] = system: activation of ELK1 by MEK/ERK; assay type: cell-based; details: HeLa cells co-transfected
[16] = system: HeLa (cervical cancer cells); assay: growth of AR-negative cells, HeLa; assay type: cell-based
[17] = system: AR target genes in 22Rv1 cells; assay: real time RT-PCR of AR target genes in 22Rv1 cells; assay type: cell-based; details: 10 µM, 72h
[18] = target: binding of AR to ELK1 (Homo sapiens, UniProt P10275); assay: SPR competition: binding of AR; details: AR 200 nM
[19] = system: H1650 (lung adenocarcinoma cells); assay: growth of AR-negative cells, H1650; assay type: cell-based
[20] = plasma/serum levels and metabolites of KCI807 by LC-MS/MS; details: mice, 250 mg/kg IP alternate days, 6h after last injection
[21] = target: association of AR with ELK1 (Homo sapiens, UniProt P10275); assay: BRET assay of association of ELK1 with AR in HEK293T cells; assay type: cell-based; details: pre-incubation
[22] = system: AR or AR-V7 protein level; assay: protein level of AR / AR-V7 in PC/CRPC cell lines; assay type: cell-based
[23] = mouse, in vivo
[24] = system: HEK293 (adenovirus transformed kidney fibroblasts); assay: growth of AR-negative cells, HEK293; assay type: cell-based
[25] = target: ELK1 (Homo sapiens) (UniProt P19419); details: cited from earlier work
Chain of ELK1 (Homo sapiens) (P19419 whole entry): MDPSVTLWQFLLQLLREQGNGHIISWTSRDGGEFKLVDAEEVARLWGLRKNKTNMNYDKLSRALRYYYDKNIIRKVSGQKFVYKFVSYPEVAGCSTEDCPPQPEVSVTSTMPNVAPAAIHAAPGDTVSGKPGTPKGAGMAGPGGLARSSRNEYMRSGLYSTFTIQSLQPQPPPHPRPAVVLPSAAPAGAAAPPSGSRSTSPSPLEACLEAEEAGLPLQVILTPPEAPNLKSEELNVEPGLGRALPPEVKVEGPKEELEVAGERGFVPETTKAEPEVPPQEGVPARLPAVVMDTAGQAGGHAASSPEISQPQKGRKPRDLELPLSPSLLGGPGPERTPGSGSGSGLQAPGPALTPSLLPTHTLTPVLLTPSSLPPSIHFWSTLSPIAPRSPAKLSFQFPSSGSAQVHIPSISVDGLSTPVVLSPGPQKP

Chain of ELK1 (P19419 whole entry): as above

Kd [1]: 1430 nM
IC50 for inhibition of ELK1-dependent promoter activation by AR [2]: No effect
Compound: O=c1cc(-c2cccc(O)c2)oc2ccccc12 [3’-Hydroxyflavone]

Compound: O=c1cc(-c2ccc(O)c(O)c2)oc2ccccc12 [3’.4’-Dihydroxyflavone]
IC50 for inhibition of ELK1-dependent promoter activation by AR [2]: No effect

Compound: O=c1cc(-c2ccc(O)c(O)c2)oc2cccc(O)c12 [5,3’,4’-Trihydroxyflavone]
IC50 [2]: 1010 nM

IC50 [2]: 4170 nM
Compound: COc1ccc(-c2cc(=O)c3c(O)c(OC)c(OC)cc3o2)cc1O [5,3’-Dihydroxy-6,7,4’-trimethoxyflavone]

IC50 [2]: 5480 nM
Compound: O=c1cc(-c2ccc(O)cc2)oc2cccc(O)c12 [5,4’-Dihydroxyflavone]

IC50 for inhibition of ELK1-dependent promoter activation by AR [2]: No effect
Compound: COc1c(-c2ccc(O)c(O)c2)oc2cc(O)cc(O)c2c1=O [5,7,3’,4’-Tetrahydroxy-3-methoxyflavone]

Compound: COc1cc(OC)c2c(=O)cc(-c3ccc(OC)c(OC)c3)oc2c1 [5,7,3’,4’-Tetramethoxyflavone]
IC50 for inhibition of ELK1-dependent promoter activation by AR [2]: No effect

IC50 [2]: 1370 nM
Compound: COc1ccc(-c2cc(=O)c3c(O)cc(O)cc3o2)cc1O [5,7,3’-Trihydroxy-4’-methoxyflavone]

IC50 for inhibition of ELK1-dependent promoter activation by AR [2]: No effect
Compound: COc1cc(-c2cc(=O)c3c(O)cc(O)cc3o2)ccc1O [5,7,4’-Trihydroxy-3’-methoxyflavone]

IC50 [2]: > 10000 nM
Compound: O=c1cc(-c2ccccc2)oc2cccc(O)c12 [5-Hydroxyflavone]

Compound: O=c1cc(-c2ccccc2)oc2cc(O)cc(O)c12 [5.7-Dihydroxyflavone]
IC50 for inhibition of ELK1-dependent promoter activation by AR [2]: No effect

IC50 for inhibition of ELK1-dependent promoter activation by AR [2]: No effect
Compound: O=c1cc(-c2ccc(O)c(O)c2)oc2cc(O)ccc12 [7,3’,4’-Trihydroxyflavone]

IC50 for inhibition of ELK1-dependent promoter activation by AR [2]: No effect
Compound: O=c1cc(-c2cccc(O)c2)oc2cc(O)ccc12 [7,3’-Dihydroxyflavone]

IC50 for inhibition of ELK1-dependent promoter activation by AR [2]: No effect
Compound: O=c1cc(-c2ccc(O)cc2)oc2cc(O)ccc12 [7,4’-Dihydroxyflavone]

Compound: O=c1cc(-c2ccc(O)c(O)c2)oc2cc(O)cc(O)c12 [Hit 1, 5,7,3’,4’-Tetrahydroxyflavone]
stability in vitro [3]: highly unstable
effect on ARE-dependent promoter activation by AR (counter screen) [4]: virtual absence of an effect
IC50 [2]: 1010 nM
inhibition at 10 µM ([2]; Mus musculus, MIN6, 6 h, read-out: inhibition in the primary screen): 80 to 100%

Compound: O=c1cc(-c2cccc(O)c2)oc2cccc(O)c12 [KCI807, 5,3’-Dihydroxyflavone]
symptoms during PDX-PR011 study ([5]; mouse, in vivo): asymptomatic
weight loss during PDX-PR011 study ([5]; mouse, in vivo): did not show appreciable weight loss
tumor growth, PDX-PR011 xenograft [5]: significantly inhibited
cell growth inhibition, MTT, 22Rv1 [6]: completely inhibited cell growth
cell growth inhibition, MTT, LNCaP [7]: completely inhibited cell growth
hormone-independent promoter activation by splice variant AR-V7 [8]: inhibited
cell growth inhibition, MTT, VCaP [9]: most sensitive
half-life [10]: 6 h
binding to immobilized ELK1 [11]: did not bind
dissociation constant for AR relative to that for binding of ELK1 to AR ([1]; ELK1-AR value ref [25]): ~ 3 times
Kd [1]: 69.2 nM
growth of DU145 cells [12]: did not appreciably affect
concentration beyond which colony growth was virtually completely inhibited [13]: > 125 nM
AR recruitment at canonical ARE enhancer sites (KLK3, TMPRSS2) [14]: did not impede
association of AR with chromatin sites at which ELK1 recruits AR [14]: prevented association
inhibition of luciferase reporter activation by MEK1 (caMEK1, Gal4-ELK1) [15]: did not inhibit
growth of HeLa cells [16]: did not appreciably affect
expression of AR target genes (mRNA) [17]: decreased expression of only the genes known to be supported synergistically by ELK1 and AR
blocking of binding of purified AR (analyte) to immobilized ELK1 [18]: blocked binding
IC50 [2]: 530 nM
growth of H1650 cells [19]: did not appreciably affect
plasma level of unmetabolized compound (median), Day 11 [20]: 387 nM
plasma level of unmetabolized compound (median), Day 19 [20]: 70 nM
BRET coupling between ELK1 and AR [21]: inhibited
expression of AR or AR-V7 proteins [22]: does not affect
immediate and peri-acute post-injection toxicity (dose determination) [23]: asymptomatic post all doses given
growth of HEK293 cells [24]: did not appreciably affect

Compound: CNC(=O)c1ccc(N2C(=S)N(c3ccc(C#N)c(C(F)(F)F)c3)C(=O)C2(C)C)cc1F [enzalutamide, reference compound]
tumor growth, PDX-PR011 xenograft [5]: insensitive
cell growth inhibition, MTT, 22Rv1 [6]: only showed partial effects
cell growth inhibition, MTT, LNCaP [7]: only showed partial effects
cell growth inhibition, MTT, VCaP [9]: most sensitive

Compound: CC(=O)Nc1cccc(-n2c(=O)n(C3CC3)c(=O)c3c(Nc4ccc(I)cc4F)n(C)c(=O)c(C)c32)c1 [trametinib, reference compound]
inhibition of luciferase reporter activation by MEK1 (caMEK1, Gal4-ELK1) [15]: completely inhibited

Compound: AR (from UniProt P10275)
Kd [25]: 20 nM
